According to ChEMBL document CHEMBL1201862, “PubChem BioAssay data set” (2004):
The source made the active and inactive calls.

What was measured:
Albumin = Albumin (Bos taurus, UniProt P02769); assay: Counterscreen for inhibitors of T-cell receptor (TCR)-CD3 interaction: Fluorescence-based biochemical high throughput dose response assay to identify inhibitors of T-cell receptor (TCR)-CD3 interaction using a TAMRA-labeled BSA probe.; type: functional
cells [1] = type: functional, cell-based
[2] = molecular target: T1, Trace amine-associated receptor 1 (Homo sapiens, UniProt Q96RJ0); assay: Fluorescence-based cell-based high throughput dose response assay to identify agonists of the human trace amine associated receptor 1 (TAAR1).; type: functional
T1 sequence (Q96RJ0 whole entry): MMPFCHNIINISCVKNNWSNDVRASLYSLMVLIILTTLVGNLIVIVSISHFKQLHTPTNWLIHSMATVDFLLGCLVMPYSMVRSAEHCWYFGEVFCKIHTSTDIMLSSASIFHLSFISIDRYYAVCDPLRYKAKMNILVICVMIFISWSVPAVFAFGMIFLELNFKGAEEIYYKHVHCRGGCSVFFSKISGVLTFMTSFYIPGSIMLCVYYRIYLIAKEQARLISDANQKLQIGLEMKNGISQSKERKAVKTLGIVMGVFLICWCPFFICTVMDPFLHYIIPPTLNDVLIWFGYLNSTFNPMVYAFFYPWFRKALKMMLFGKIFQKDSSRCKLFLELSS

[3] = molecular target: T1, Trace amine-associated receptor 1; assay: Counterscreen for agonists of the human trace amine associated receptor 1 (hTAAR1): Fluorescence-based cell-based high throughput dose response assay to identify hTAAR1 agonist that also desensitize TAAR1 receptor response.; type: functional
cells [4] = type: functional, cell-based; remark: listed apart in the source
cells [5] = type: functional, cell-based; remark: listed apart in the source
[6] = molecular target: T2, Nuclear receptor subfamily 0 group B member 1 (Homo sapiens, UniProt P51843); type: functional, cell-based;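 further: HEK293T cells transfected with SF-1 and DAX-1 plus StAR promoter luciferase reporter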
T2 sequence (P51843 whole entry): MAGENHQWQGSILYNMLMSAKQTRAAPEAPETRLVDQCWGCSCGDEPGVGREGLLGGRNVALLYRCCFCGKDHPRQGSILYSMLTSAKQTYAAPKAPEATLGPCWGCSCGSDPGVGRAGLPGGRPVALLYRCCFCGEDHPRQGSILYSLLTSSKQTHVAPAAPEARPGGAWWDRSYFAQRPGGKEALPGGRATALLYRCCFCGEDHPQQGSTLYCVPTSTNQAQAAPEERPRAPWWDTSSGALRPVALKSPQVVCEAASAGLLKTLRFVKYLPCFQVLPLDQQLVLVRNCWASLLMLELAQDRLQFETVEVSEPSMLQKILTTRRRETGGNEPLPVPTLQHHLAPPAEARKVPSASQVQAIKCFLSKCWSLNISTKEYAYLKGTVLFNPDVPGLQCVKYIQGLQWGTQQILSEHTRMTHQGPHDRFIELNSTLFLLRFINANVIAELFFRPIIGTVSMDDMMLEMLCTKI

INS1 = assay: INS-1E survival protection against cytokine death – cell-based, luminescence, retest, dose response (AID 449756); type: functional; settings: Rattus norvegicus;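 further: cell death triggered by IL-1 beta plus TNF-alpha plus IFN-gamma mixture; protective hits raise ATP signal compared with cytokine alone wells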
Protein Wnt-3a = Protein Wnt-3a (Mus musculus, UniProt P27467); assay: antagonism of Wnt3a pathway luciferase reporter – Wnt-LIGHT cells, luminescence, selectivity assay for Gli-SUFU antagonist project, dose response (AID 651570); type: functional; settings: read-out: IC50_Mean;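 further: Wnt-LIGHT reporter cells stimulated with conditioned medium from Wnt3a-producing cells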
Chain of Protein Wnt-3a (P27467 whole entry): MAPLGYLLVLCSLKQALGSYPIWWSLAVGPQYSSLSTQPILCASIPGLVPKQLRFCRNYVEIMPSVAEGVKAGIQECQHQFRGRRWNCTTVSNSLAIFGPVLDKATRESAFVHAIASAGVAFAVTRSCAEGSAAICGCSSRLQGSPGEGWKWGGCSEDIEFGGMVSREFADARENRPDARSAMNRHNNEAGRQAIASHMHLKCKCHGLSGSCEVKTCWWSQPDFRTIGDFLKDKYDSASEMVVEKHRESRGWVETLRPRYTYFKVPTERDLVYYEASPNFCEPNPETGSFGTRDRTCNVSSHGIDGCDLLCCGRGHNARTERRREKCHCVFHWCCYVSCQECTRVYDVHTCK

[7] = potency of ADAM10 substrate cleavage blockers – biochemical, QFRET, dose response (AID 743254);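 further: ADAM10 enzyme with the DM2 quenched FRET peptide as substrate; EDANS fluorescence gain as the protease cuts the substrate; inhibitor potency against ADAM10 proteolytic activity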
[8] = molecular target: Disintegrin and metalloproteinase domain-containing protein 17 (Homo sapiens, UniProt P78536); assay: inhibition of ADAM17 substrate cleavage – biochemical, quenched FRET substrate, counter-screen for ADAM10 exosite inhibitor project, dose response (AID 743253)
Chain of Disintegrin and metalloproteinase domain-containing protein 17 (P78536 whole entry, the tested form may be a part): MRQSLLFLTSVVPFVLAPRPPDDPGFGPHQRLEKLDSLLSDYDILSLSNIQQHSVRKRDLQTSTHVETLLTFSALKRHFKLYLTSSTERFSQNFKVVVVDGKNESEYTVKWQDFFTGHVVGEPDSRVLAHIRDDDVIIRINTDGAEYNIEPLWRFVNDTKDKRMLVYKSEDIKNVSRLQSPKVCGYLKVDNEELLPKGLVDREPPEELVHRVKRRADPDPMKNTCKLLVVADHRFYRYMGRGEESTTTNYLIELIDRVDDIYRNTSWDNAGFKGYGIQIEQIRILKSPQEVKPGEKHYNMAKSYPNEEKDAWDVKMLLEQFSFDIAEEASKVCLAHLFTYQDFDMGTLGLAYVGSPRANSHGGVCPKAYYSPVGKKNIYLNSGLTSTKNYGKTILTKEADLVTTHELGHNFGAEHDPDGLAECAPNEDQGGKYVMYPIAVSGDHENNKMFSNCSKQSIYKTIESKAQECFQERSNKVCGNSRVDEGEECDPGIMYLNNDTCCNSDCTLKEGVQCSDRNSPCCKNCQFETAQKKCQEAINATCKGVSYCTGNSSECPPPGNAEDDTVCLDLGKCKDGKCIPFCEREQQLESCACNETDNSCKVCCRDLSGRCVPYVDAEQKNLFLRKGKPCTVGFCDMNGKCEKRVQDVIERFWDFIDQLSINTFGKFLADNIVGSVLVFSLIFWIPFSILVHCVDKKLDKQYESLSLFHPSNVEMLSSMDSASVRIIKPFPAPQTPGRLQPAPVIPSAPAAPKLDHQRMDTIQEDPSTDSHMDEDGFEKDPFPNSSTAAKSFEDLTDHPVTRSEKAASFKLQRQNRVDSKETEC

[9] = molecular target: Ras and Rab interactor 1/Tyrosine-protein kinase ABL1 (Homo sapiens, UniProt P00519+Q13671); type: functional;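 further: biochemical TR-FRET dose-response test measuring inhibition of binding between Rin1 and Abl proteins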
Chain of Ras and Rab interactor 1/Tyrosine-protein kinase ABL1 (P00519 whole entry): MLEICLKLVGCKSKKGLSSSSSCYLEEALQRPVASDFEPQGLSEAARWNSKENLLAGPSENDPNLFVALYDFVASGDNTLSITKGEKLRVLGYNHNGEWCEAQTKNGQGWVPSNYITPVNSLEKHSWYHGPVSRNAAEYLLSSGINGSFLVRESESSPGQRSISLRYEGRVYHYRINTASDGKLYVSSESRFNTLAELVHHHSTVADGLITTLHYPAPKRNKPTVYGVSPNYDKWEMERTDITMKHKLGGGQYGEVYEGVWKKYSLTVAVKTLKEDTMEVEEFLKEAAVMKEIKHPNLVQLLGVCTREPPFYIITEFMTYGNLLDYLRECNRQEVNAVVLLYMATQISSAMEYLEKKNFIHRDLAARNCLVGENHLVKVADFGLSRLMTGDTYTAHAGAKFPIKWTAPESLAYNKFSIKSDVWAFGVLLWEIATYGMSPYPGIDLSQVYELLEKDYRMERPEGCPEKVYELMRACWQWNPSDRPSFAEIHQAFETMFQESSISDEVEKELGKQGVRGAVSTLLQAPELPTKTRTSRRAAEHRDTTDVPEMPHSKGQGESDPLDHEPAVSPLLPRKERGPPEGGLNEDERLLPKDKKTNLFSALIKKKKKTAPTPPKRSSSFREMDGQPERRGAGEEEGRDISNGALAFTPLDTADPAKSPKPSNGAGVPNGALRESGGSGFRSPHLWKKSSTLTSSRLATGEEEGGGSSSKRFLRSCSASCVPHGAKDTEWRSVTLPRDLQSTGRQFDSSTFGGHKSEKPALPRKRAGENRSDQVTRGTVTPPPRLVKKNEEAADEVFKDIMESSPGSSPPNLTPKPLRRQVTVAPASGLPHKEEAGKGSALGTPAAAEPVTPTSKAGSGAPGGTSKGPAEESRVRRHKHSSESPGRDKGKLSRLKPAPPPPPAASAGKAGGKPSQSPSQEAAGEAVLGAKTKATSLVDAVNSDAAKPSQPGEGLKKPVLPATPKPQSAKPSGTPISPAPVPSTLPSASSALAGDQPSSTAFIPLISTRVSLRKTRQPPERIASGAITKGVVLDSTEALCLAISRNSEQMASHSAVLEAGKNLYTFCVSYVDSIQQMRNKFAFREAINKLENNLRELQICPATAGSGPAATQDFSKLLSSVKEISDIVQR
Chain of Ras and Rab interactor 1/Tyrosine-protein kinase ABL1 (Q13671 whole entry): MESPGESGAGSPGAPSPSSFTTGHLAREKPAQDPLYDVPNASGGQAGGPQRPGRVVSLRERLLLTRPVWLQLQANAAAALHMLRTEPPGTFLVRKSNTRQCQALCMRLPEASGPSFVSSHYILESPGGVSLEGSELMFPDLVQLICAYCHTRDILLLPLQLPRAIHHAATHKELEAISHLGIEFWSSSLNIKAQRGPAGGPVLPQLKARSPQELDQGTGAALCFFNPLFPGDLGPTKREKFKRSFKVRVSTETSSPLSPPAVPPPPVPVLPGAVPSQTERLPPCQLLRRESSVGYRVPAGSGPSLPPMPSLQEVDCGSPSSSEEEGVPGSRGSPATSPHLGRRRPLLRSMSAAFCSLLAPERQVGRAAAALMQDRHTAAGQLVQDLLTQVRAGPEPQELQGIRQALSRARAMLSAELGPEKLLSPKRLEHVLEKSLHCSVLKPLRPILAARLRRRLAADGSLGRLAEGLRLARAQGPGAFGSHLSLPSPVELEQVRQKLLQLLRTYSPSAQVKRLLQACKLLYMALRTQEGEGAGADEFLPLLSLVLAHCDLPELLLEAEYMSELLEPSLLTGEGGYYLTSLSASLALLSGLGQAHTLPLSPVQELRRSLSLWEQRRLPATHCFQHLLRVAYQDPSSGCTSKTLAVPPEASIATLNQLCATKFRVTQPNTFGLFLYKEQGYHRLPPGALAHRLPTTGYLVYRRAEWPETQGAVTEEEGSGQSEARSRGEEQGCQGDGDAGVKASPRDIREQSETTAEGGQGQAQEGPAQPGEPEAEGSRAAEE

[10] = reduction of Shn3 3'UTR-driven luciferase in osteoblasts – cell-based, Clone20 osteoblasts, firefly luciferase, cherry-picked, dose response (AID 624132); type: functional;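 further: firefly luciferase luminescence from reporter carrying the Shn3 3'UTR in osteoblasts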
[11] = loss of viability in HepG2 cells – cell-based, CellTiter-Glo, cherry-picked, cytotoxicity control for Shn3 inhibitor project, dose response (AID 624134); type: functional
[12] = non-specific 3'UTR reporter inhibition in Clone20-Shn3RL – cell-based, Renilla luciferase, cherry-picked, counter-screen for Shn3 inhibitor project, dose response (AID 624133); type: functional
[13] = molecular target: Photoreceptor-specific nuclear receptor (Homo sapiens, UniProt Q9Y5X4); type: functional, cell-based;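 further: CHO-S cells with Gal4-NCOR and VP16-NR2E3 two-hybrid luciferase reporter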
Chain of Photoreceptor-specific nuclear receptor (Q9Y5X4 whole entry, the tested form may be a part): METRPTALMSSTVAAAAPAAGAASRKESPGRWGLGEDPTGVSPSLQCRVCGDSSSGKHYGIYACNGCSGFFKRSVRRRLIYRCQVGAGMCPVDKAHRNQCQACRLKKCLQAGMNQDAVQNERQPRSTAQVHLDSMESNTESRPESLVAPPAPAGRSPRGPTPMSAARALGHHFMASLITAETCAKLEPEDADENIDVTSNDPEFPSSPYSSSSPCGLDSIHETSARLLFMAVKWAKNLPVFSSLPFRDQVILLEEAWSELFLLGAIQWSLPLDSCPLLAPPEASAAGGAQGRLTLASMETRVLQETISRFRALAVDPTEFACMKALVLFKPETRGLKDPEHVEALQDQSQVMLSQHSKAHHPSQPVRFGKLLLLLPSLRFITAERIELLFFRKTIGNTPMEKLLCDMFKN

Mu-type opioid receptor = Mu-type opioid receptor (Homo sapiens, UniProt P35372); type: functional, cell-based;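 further: U2OS cells with beta-arrestin recruitment to OPRM1 by beta-gal complementation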
[14] = molecular target: 5-hydroxytryptamine receptor 2A (Mus musculus, UniProt P35363); type: functional, cell-based;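 further: CHO-K1 cells with tagged receptor and beta-arrestin; agonist potency measured as compound-induced activation of the receptor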
Chain of 5-hydroxytryptamine receptor 2A (P35363 whole entry): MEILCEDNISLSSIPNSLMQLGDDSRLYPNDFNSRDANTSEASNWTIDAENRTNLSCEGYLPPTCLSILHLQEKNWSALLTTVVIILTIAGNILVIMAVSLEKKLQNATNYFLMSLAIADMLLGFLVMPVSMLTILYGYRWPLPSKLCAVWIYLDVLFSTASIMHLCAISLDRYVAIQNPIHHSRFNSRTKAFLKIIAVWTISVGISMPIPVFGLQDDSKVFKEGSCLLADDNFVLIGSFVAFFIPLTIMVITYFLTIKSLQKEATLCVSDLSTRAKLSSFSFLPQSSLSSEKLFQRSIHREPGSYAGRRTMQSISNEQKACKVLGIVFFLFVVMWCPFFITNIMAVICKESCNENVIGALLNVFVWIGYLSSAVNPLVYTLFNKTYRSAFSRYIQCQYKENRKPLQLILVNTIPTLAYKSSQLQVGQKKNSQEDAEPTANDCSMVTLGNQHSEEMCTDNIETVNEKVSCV

[15] = molecular target: Nuclear receptor subfamily 5 group A member 2 (Homo sapiens, UniProt O00482); type: functional, cell-based;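 further: HEK293T cells transfected with LRH-1 and a StAR promoter luciferase reporter; potency for inhibitors that lower LRH-1 driven reporter light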
Chain of Nuclear receptor subfamily 5 group A member 2 (O00482 whole entry): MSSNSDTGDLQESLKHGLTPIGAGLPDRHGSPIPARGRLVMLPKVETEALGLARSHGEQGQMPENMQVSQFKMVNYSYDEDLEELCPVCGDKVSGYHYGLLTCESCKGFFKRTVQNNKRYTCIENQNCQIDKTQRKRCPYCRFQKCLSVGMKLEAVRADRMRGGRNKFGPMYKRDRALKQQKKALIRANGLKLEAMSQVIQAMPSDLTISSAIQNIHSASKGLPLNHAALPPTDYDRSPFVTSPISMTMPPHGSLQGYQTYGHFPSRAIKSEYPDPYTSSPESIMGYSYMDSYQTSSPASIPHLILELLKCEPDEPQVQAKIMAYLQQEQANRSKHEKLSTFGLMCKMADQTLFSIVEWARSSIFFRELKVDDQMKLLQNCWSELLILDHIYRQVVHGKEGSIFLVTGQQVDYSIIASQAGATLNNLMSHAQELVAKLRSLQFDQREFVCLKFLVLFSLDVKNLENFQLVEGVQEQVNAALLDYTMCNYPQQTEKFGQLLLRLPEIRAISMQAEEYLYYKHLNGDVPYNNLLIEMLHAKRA

Steroidogenic factor 1 = Steroidogenic factor 1 (Homo sapiens, UniProt Q13285); assay: Counterscreen for inverse agonists of the liver receptor homolog-1 (LRH-1; NR5A2): Luminescence-based cell-based high throughput dose response assay to identify inverse agonists of the Steroidogenic Factor 1 Nuclear Receptor (SF1; NR5A1).; type: functional
[16] = nonselective StAR promoter luciferase inhibitors – cell-based, luminescence, luciferase reporter, counter-screen for LRH-1 inverse agonist project, dose response (AID 651969); type: functional
[17] = molecular target: Adenosylmethionine-8-amino-7-oxononanoate aminotransferase (Mycobacterium tuberculosis, UniProt P9WQ81); assay: Mycobacterium tuberculosis BioA enzyme inhibitor Measured in Biochemical System Using Plate Reader - 2163-02_Inhibitor_Dose_CherryPick_Activity.; type: functional, Mycobacterium tuberculosis UT205
Chain of Adenosylmethionine-8-amino-7-oxononanoate aminotransferase (P9WQ81 whole entry): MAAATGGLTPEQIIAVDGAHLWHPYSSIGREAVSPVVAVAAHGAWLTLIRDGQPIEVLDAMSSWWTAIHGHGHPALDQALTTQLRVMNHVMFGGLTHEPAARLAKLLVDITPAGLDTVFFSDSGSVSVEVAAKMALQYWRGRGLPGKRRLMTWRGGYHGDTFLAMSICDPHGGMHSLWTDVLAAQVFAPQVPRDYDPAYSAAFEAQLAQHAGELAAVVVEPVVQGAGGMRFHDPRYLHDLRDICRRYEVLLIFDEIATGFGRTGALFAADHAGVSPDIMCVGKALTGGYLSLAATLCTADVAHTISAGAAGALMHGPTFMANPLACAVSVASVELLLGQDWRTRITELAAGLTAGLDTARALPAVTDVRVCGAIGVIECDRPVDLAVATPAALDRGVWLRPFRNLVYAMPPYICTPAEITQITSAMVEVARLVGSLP

[18] = molecular target: T3, Heat shock factor protein 1 (Mus musculus, UniProt P38532); assay: decrease of HSF1-responsive luciferase luminescence – cell-based, NIH3T3, dose retest, confirmation (AID 2382); type: functional;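 further: NIH3T3 fibroblasts with HSF1-driven luciferase reporter stressed by proteasome inhibitor MG132; luminescence from HSF1-driven luciferase expression after 8 hours of MG132 stress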
T3 sequence (P38532 whole entry): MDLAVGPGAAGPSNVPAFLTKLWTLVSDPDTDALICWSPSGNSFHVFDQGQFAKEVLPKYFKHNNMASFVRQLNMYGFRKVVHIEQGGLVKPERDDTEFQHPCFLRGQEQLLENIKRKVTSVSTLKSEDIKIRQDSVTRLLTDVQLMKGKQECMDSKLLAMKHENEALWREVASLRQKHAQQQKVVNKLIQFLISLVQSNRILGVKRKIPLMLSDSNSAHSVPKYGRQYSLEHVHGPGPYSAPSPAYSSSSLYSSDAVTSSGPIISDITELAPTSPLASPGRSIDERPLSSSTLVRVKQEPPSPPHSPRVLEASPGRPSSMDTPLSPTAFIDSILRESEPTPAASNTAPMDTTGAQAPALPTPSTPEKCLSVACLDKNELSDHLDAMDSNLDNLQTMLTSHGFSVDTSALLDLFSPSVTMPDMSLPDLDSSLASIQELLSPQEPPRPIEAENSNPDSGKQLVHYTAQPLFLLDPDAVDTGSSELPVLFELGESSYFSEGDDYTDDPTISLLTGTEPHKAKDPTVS

[19] = molecular target: Luciferin 4-monooxygenase (Photinus pyralis, UniProt P08659); assay: inhibition of purified Photinus pyralis luciferase – biochemical, luminescence, dose response (AID 1891)
[20] = Luminescence Cell-Based Dose Confirmation HTS to Identify Inhibitors of Platelet Dense Granule Release. [Related pubchem assays: 1663 (Primary HTS), 1678 (Summary of Project)]; type: functional
[21] = molecular target: FAD-linked sulfhydryl oxidase ALR (Homo sapiens, UniProt P55789); assay: ALR-catalysed DTT oxidation blockers – biochemical, H2O2 detection, luminescence, cherry-pick, dose response (AID 493248)
[22] = inhibition of ARNT PAS-B/TACC3 complex formation – biochemical, AlphaScreen, cherry-picked samples, confirmation (AID 651703); type: functional, Homo sapiens;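 further: His-tagged ARNT PAS-B domain paired with GST-TACC3 E629A dimer coactivator fragment; potency of inhibitors that break up the complex and lower AlphaScreen signal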
[23] = T. cruzi growth inhibition in host cells, dose response, cell-based, plate reader, dry powder, set 2 (AID 652275); type: functional
NS3 = NS3 (Hepatitis C virus, UniProt A3EZJ3); assay: PubChem AID 2173; set-up: species or system Hepacivirus hominis
[24] = molecular target: Induced myeloid leukemia cell differentiation protein Mcl-1 (Homo sapiens, UniProt Q07820); type: functional
[25] = molecular target: T4, Corticotropin-releasing factor receptor 2/Corticotropin-releasing factor-binding protein (Homo sapiens, UniProt P24387+Q13324); assay: Dose Response confirmation of uHTS hits for small molecule antagonists of the CRF-binding protein and CRF-R2 receptor complex.; type: functional; settings: read-out: IC50_Mean
T4 sequence (Q13324 whole entry): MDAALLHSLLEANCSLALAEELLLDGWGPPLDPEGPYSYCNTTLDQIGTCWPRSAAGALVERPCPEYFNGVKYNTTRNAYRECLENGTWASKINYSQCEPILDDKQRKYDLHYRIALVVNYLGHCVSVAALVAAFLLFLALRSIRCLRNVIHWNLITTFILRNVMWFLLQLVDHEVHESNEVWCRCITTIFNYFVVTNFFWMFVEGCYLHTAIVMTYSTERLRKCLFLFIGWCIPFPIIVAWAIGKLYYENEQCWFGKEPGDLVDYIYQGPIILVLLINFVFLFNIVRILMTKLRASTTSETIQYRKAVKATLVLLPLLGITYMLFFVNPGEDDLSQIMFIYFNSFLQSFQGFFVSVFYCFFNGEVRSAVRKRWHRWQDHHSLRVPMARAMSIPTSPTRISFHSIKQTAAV
T4 sequence (P24387 whole entry): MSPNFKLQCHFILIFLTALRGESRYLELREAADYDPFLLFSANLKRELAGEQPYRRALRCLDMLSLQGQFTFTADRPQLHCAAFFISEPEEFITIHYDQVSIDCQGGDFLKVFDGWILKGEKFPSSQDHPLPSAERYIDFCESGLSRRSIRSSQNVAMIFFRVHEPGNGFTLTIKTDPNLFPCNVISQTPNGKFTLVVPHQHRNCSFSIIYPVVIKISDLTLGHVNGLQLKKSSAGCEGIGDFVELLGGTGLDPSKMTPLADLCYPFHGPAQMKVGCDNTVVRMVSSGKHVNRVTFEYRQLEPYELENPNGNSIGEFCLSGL

[26] = molecular target: T4, Corticotropin-releasing factor receptor 2/Corticotropin-releasing factor-binding protein; assay: activators of CRF receptor 2 with binding protein – uHTS hits, confirmation (AID 602473); type: functional; settings: read-out: EC50_Mean

COc1cc(OC)cc(C(=O)N/N=C/c2ccc(OC)c(COc3ccc4ccccc4c3)c2)c1
IC50 (Albumin): > 94.1 µM (inactive)

COc1ccccc1CC(=O)NCCc1ccccc1
IC50 (cells [1]): > 29.9 µM (inactive) | EC50 [2]: 3.18 µM (active) | IC50 [3]: 9 µM (active) | EC50 (cells [4]): > 29.9 µM (inactive)

O=C(Nc1ncccc1O)c1ccc(S(=O)(=O)N2CCCCCC2)cc1
IC50 (cells [5]): > 67.5 µM (inactive) | IC50 [6]: 31.7 µM (inactive)

CCCC(C)C(=O)Nc1nc(C)c(-c2csc(Nc3ccc(Cl)cc3)n2)s1 (centres undefined)
AC50 (INS1): 4.18 µM (active) | IC50 (Protein Wnt-3a): 13.8 µM (active)

CC1(Cc2ccc(Cl)c(Cl)c2)C(=O)Nc2ccc(S(=O)(=O)NC3CCCCC3)cc21 (centres undefined)
IC50 [7]: 8.03 µM (active) | IC50 [8]: > 69.5 µM (inactive)

CN(Cc1ccccc1)S(=O)(=O)c1ccc(Cl)c(C(=O)N2CCC2)c1
IC50 [9]: 32.9 µM (inactive)

CC(O)(c1cccc(F)c1)c1nc(/C=C/c2ccccc2)cs1 (centres undefined)
IC50 [7]: 25 µM (inactive) | IC50 [8]: > 69.5 µM (inactive)

O=C(OCCOc1ccc(Cl)cc1)c1cc(S(=O)(=O)N2CCCCC2)ccc1N1CCOCC1
AC50 [10]: 1.97 µM (active) | AC50 [11]: > 70 µM (inactive) | AC50 [12]: 6.64 µM (active) | IC50 [13]: 4.3 µM (active)

Brc1ccc(CN2CCN(c3ccccn3)CC2)s1
EC50 (Mu-type opioid receptor): 92.5 µM (inactive) | EC50 [14]: 0.0705 µM (active)

CN1C(=O)C(=CN2CCN(C(=O)c3ccco3)CC2)C(=O)N(C)C1=S
IC50 (cells [1]): > 29.9 µM (inactive) | EC50 [2]: 4.85 µM (active) | IC50 [3]: > 29.9 µM (inactive) | EC50 (cells [4]): > 29.9 µM (inactive)

COc1ccc(CCNC(=O)c2ccc(NC3=NC4CS(=O)(=O)CC4S3)cc2)cc1OC (centres undefined)
IC50 [9]: 26.3 µM (inactive)

COc1ccnc(Oc2ccccc2)c1C(=O)N=CNOCc1ccccc1F
IC50 [15]: 3.99 µM (active) | IC50 (Steroidogenic factor 1): 3.65 µM (active) | IC50 [16]: 26.1 µM (inactive)

O=C(Cc1ccccc1)N1CC[C@@H]2[C@H](CO)Nc3ccc(Br)cc3[C@@H]21
AC50 [17]: 3.09 µM (active)

NNC(=O)c1ccc(O)cc1O
EC50 [18]: > 195 µM (not active) | EC50 [19]: > 112 µM (not active) | EC50 [20]: > 112 µM (not active) | AC50 [21]: 16 µM (active) | AC50 [22]: 91.8 µM (active)

COc1ccc(C(C)NC(=O)Nc2ccc(C(C)=O)cc2)cc1OC (centres undefined)
AC50 [17]: 3.72 µM (active)

c1ccc(CNc2ncnc3sccc23)cc1
IC50 [13]: 3.7 µM (active)

O=C(CN1CCOCC1)N1CCCCN2[C@@H](CO)[C@H](c3ccc(-c4ccccc4F)cc3)[C@@H]2C1
AC50 [23]: 0.84 µM (active)

Nc1c(C(=O)NCC2CCCO2)sc2nc3c(c(-c4ccco4)c12)CC/C3=C\c1ccco1 (centres undefined)
IC50 (NS3): 3.91 µM (active) | IC50 [24]: 1.22 µM (active) | IC50 (Albumin): > 94.1 µM (inactive)

CC(C)N1C[C@H](C)[C@@H](CN(C)Cc2ccc(Oc3ccccc3)cc2)Oc2c(C(=O)Nc3ccncc3)cccc2C1=O
AC50 [23]: 0.167 µM (active)

O=C(Nc1ccc(C(=O)N2CCOCC2)cc1)c1cccc([N+](=O)[O-])c1
IC50 [15]: 15 µM (inactive) | IC50 (Steroidogenic factor 1): 1.09 µM (active) | IC50 [16]: 35.9 µM (inactive)

Cc1cccc(C)c1OCC(O)CN1CCN(c2ccccc2)CC1 (centres undefined)
EC50 (Mu-type opioid receptor): 92.5 µM (inactive) | EC50 [14]: 76.1 µM (inactive)

Cn1ccc(C(=O)Nc2sc3c(c2C(N)=O)CCCCC3)n1
IC50 [25]: > 47.1 µM (inactive) | EC50 [26]: > 53 µM (inactive) | IC50 (cells [5]): > 67.5 µM (inactive) | IC50 [6]: > 2.5 µM (active)

Cc1cc(Br)c(S(=O)(=O)NCc2ccncc2)cc1C
AC50 [10]: 1.41 µM (active) | AC50 [11]: 2.37 µM (active) | AC50 [12]: 3.34 µM (active) | IC50 (Protein Wnt-3a): 3.16 µM (active)
